For one data set, the system named is HIV-1. The data set is described as follows: HIV viral load in patients sensitized and rechallenged topically. The format is in vivo, human. The text has this:
As examples of the HIV viral load reducing effects of the subject compositions, two patients were sensitized with 0.400% diphenylcyclopropenone in a vehicle consisting of equal parts of polyoxysorbitan 20 monooleate and isopropyl myristate and subsequently rechallenged with 0.100% diphenylcyclopropenone in the same vehicle two weeks, four weeks and eight weeks later.

For data set [1] the following is noted: rodents; cited from earlier work.
For data set [2] the following is noted: cited from earlier work.

Molecules are shown by their SMILES.

Here are results for 2 compounds from patent US20020128326A1, “TOPICAL IMMUNOMODULATING COMPOSITIONS FOR TREATMENT OF AIDS, HEPATITIS B&C, OTHER INFECTIOUS DISEASES, AND CANCER” (priority 1998, published 2002).

For `O=c1c(-c2ccccc2)c1-c1ccccc1` [diphenylcyclopropenone], the “HIV-1 RNA Copies/1.0 ml Plasma” value is on record as 400 Copies Copies/1.0 ml Plasma in the data set with HIV-1 (Patient #1, Baseline); 79 Copies/1.0 ml Plasma in the data set on HIV-1 (Patient #1, Eight Weeks, sensitized 0.400%, rechallenged 0.100% topically); 60 Copies/1.0 ml Plasma in the data set with HIV-1 (Patient #1, Four Weeks, sensitized 0.400%, rechallenged 0.100% topically); 118 Copies/1.0 ml Plasma in the data set on HIV-1 (Patient #1, Two Weeks, sensitized 0.400%, rechallenged 0.100% topically); 440 Copies/1.0 ml Plasma with HIV-1 (Patient #2, Baseline); 351 Copies/1.0 ml Plasma in the data set on HIV-1 (Patient #2, Eight Weeks, sensitized 0.400%, rechallenged 0.100% topically).

For the compound `CC(C)=O` [Acetone], in data set [1], the LD/50 is 10.7 mg/kg. In addition, the “toxic effects with repeated human use” value in data set [2] is “epidermal erythema, dryness, headache, bronchial irritation, CNS effects including fatigue and excitement”.
